Source: article PMC7180572, “5-Alkylamino-N-phenylpyrazine-2-carboxamides: Design, Preparation, and Antimycobacterial Evaluation” (Molecules, 2020)
pIC50: −log10 of the molar value. Like-named read-outs stand apart in the source and are kept apart here.

Columns and labels:
[1] = type: physicochemical
Procedure: As a complementary test, final compounds were tested for in vitro activity against selected fungal and bacterial pathogens of clinical importance. The microdilution broth method was performed according to The European Committee on Antimicrobial Susceptibility Testing (EUCAST) instructions with slight modifications. The minimum inhibitory concentration was expressed in µM. Not all compounds were evaluated due to the fact of a problem with solubility which occurred for 18 samples. […] See Supplementary Materials for the list of tested strains, methodology, and full results.

[2] = test system: Mycobacterium smegmatis DSM 43465 (ATCC 607); experiment: Microdilution broth, modified Microplate Alamar Blue Assay, whole cell growth inhibition; type: cell-based; details: Mycolicibacterium smegmatis, read-out: MIC Mycobacterium smegmatis
HepG2 cells = experiment: HepG2 cytotoxicity, CellTiter 96 (MTS) assay; type: cell-based, human; details: for pIC50: Homo sapiens, read-out: HepG2 IC50
[3] = test system: Mycobacterium tuberculosis H37Ra ITM-M006710 (ATCC 9431); experiment: Microdilution broth, modified Microplate Alamar Blue Assay, whole cell growth inhibition; type: cell-based; details: Mycobacterium tuberculosis; in vitro, Middlebrook 7H9 broth, resazurin; read-out: MIC Mtb H37Ra
[4] = test system: Mycobacterium aurum DSM 43999 (ATCC 23366); experiment: as above; type: cell-based; details: Mycolicibacterium aurum, read-out: MIC Mycobacterium aurum
[5] = test system: Acinetobacter baumanii ATCC 19606, DSM 30007; experiment: Antibacterial microdilution broth method (EUCAST); type: cell-based; details: Acinetobacter baumannii
[6] = test system: Absidia corymbifera CCM 8077 (Lichtheimia corymbifera); experiment: Antifungal microdilution broth method (EUCAST); type: cell-based; details: read-out: MIC AC
[7] = test system: Aspergillus fumigatus ATCC 204305; experiment: Antifungal microdilution broth method (EUCAST); type: cell-based; details: read-out: MIC AF
[8] = test system: Pseudomonas aeruginosa ATCC 27853, CCM 3955; experiment: Antibacterial microdilution broth method (EUCAST); type: cell-based; details: read-out: MIC PA
[9] = test system: Escherichia coli ATCC 25922, CCM 3954; experiment: Antibacterial microdilution broth method (EUCAST); type: cell-based; details: read-out: MIC EC
[10] = test system: Staphylococcus epidermidis ATCC 12228, CCM 4418; experiment: Antibacterial microdilution broth method (EUCAST); type: cell-based; details: read-out: MIC SE
[11] = test system: Candida krusei ATCC 6258, CCM 8271; experiment: Antifungal microdilution broth method (EUCAST); type: cell-based; details: Pichia kudriavzevii, read-out: MIC CK
[12] = test system: Candida tropicalis ATCC 750, CCM 8264; experiment: Antifungal microdilution broth method (EUCAST); type: cell-based; details: read-out: MIC CT
[13] = test system: Aspergillus flavus CCM 8363; experiment: Antifungal microdilution broth method (EUCAST); type: cell-based; details: read-out: MIC AFla
[14] = test system: Staphylococcus aureus methicillin resistant ATCC 43300, CCM 4750; experiment: microbe, parasite or virus in culture; type: cell-based; details: ATCC 43300 / CCM 4750 / MRSA, read-out: MIC MRSA
[15] = test system: Trichophyton interdigitale ATCC 9533, CCM 8377; experiment: Antifungal microdilution broth method (EUCAST); type: cell-based; details: read-out: MIC TI
[16] = test system: Enterococcus faecalis ATCC 29212, CCM 4224; experiment: Antibacterial microdilution broth method (EUCAST); type: cell-based; details: read-out: MIC EF
[17] = test system: Klebsiella pneumoniae ATCC 10031, CCM 4415; experiment: Antibacterial microdilution broth method (EUCAST)
[18] = test system: Staphylococcus aureus spp.aureus ATCC 29213, CCM 4223; experiment: Antibacterial microdilution broth method (EUCAST); type: cell-based; details: read-out: MIC SA
[19] = test system: Candida parapsilosis ATCC 22019, CCM 8260; experiment: Antifungal microdilution broth method (EUCAST); type: cell-based; details: Lodderomyces parapsilosis, read-out: MIC CP
[20] = test system: Candida albicans ATCC 24433, CCM 8320; experiment: Antifungal microdilution broth method (EUCAST); type: cell-based; details: read-out: MIC CA
[21] = in vitro, Middlebrook 7H9 broth, resazurin

CCCCNc1cnc(C(=O)Nc2ccc(CC)cc2)cn1 [Compound 5b, 5-(Butylamino)pyrazine-N-(4-ethylphenyl)-2-carboxamide]
< 4.30: pIC50 (HepG2 cells; HepG2, 24 h incubation, > means higher concentration not reproducible due to precipitation)
133.8 to 134.8 °C: melting point
≥ 500 µg/mL: MIC [2, 21] | MIC [3] | MIC [4, 21]
precipitated in both growth media: Solubility problem in antibacterial/antifungal testing [1]

CCCCCNc1cnc(C(=O)Nc2ccc(C)cc2)cn1 [Compound 4c, 5-(Pentylamino)-N-(p-tolyl)pyrazine-2-carboxamide]
155.9 to 156.6 °C: melting point
> 125 µM: MIC ([6]; CCM8077, 24 h) | MIC ([6]; CCM8077, 48 h) | MIC ([7]; ATCC204305, 24 h) | MIC ([7]; ATCC204305, 48 h) | MIC ([11]; 24 h) | MIC ([11]; 48 h) | MIC ([12]; 24 h) | MIC ([12]; 48 h) | MIC ([13]; CCM8363, 24 h) | MIC ([13]; CCM8363, 48 h) | MIC ([15]; 72 h) | MIC ([15]; 120 h) | MIC ([19]; 24 h) | MIC ([19]; 48 h) | MIC ([20]; 24 h) | MIC ([20]; 48 h)
> 500 µM: MIC ([5]; 24h) | MIC ([5]; 48h) | MIC ([8]; 72 h) | MIC ([8]; 120 h) | MIC ([9]; 24 h) | MIC ([9]; 48 h) | MIC ([10]; 24 h) | MIC ([10]; 48 h) | MIC ([14]; 24 h) | MIC ([14]; 48 h) | MIC ([16]; 24 h) | MIC ([16]; 48 h) | MIC KP ([17]; 24h) | MIC KP ([17]; 48h) | MIC ([18]; 24 h) | MIC ([18]; 48 h)
< 4.60: pIC50 (HepG2 cells; HepG2, 24 h)
≥ 500 µg/mL: MIC [2] | MIC [3] | MIC [4]

CCCCCCCNc1cnc(C(=O)Nc2cccc(C(F)(F)F)c2)cn1 [Compound 1e, 5-(Heptylamino)-N-(3-(trifluoromethyl)phenyl)pyrazine-2-carboxamide]
148 to 149 °C: melting point
> 500 µM: MIC ([5]; 24h) | MIC ([5]; 48h) | MIC ([6]; CCM8077, 24 h) | MIC ([6]; CCM8077, 48 h) | MIC ([7]; ATCC204305, 24 h) | MIC ([7]; ATCC204305, 48 h) | MIC ([8]; 72 h) | MIC ([8]; 120 h) | MIC ([9]; 24 h) | MIC ([9]; 48 h) | MIC ([10]; 24 h) | MIC ([10]; 48 h) | MIC ([11]; 24 h) | MIC ([11]; 48 h) | MIC ([12]; 24 h) | MIC ([12]; 48 h) | MIC ([13]; CCM8363, 24 h) | MIC ([13]; CCM8363, 48 h) | MIC ([14]; 24 h) | MIC ([14]; 48 h) | MIC ([15]; 72 h) | MIC ([15]; 120 h) | MIC ([16]; 24 h) | MIC ([16]; 48 h) | MIC KP ([17]; 24h) | MIC KP ([17]; 48h) | MIC ([18]; 24 h) | MIC ([18]; 48 h) | MIC ([19]; 24 h) | MIC ([19]; 48 h) | MIC ([20]; 24 h) | MIC ([20]; 48 h)
3.65: pIC50 (HepG2 cells; HepG2, 24 h)
≥ 500 µg/mL: MIC [2] | MIC [3]
62.5 µg/mL: MIC [4]

CCCCCCCNc1cnc(C(=O)Nc2ccc(O)cc2)cn1 [Compound 3e]
31.2 µg/mL: MIC [2]
3.76: SI, selectivity index (HepG2 cells; IC50 (HepG2)/MIC against Mtb H37Ra (in µM))
4.35: pIC50 (HepG2 cells; HepG2, 24 h)
≥ 500 µg/mL: MIC [4]
151.4 to 155.4 °C: melting point
3.91 µg/mL: MIC [3]
> 500 µM: MIC ([5]; 24h) | MIC ([5]; 48h) | MIC ([8]; 72 h) | MIC ([8]; 120 h) | MIC ([9]; 24 h) | MIC ([9]; 48 h) | MIC ([10]; 24 h) | MIC ([10]; 48 h) | MIC ([14]; 24 h) | MIC ([14]; 48 h) | MIC ([16]; 24 h) | MIC ([16]; 48 h) | MIC KP ([17]; 24h) | MIC KP ([17]; 48h) | MIC ([18]; 24 h) | MIC ([18]; 48 h)
> 250 µM: MIC ([6]; CCM8077, 24 h) | MIC ([6]; CCM8077, 48 h) | MIC ([7]; ATCC204305, 24 h) | MIC ([7]; ATCC204305, 48 h) | MIC ([11]; 24 h) | MIC ([11]; 48 h) | MIC ([12]; 24 h) | MIC ([12]; 48 h) | MIC ([13]; CCM8363, 24 h) | MIC ([13]; CCM8363, 48 h) | MIC ([15]; 72 h) | MIC ([15]; 120 h) | MIC ([19]; 24 h) | MIC ([19]; 48 h) | MIC ([20]; 24 h) | MIC ([20]; 48 h)

CCCCCCNc1cnc(C(=O)Nc2ccc(CC)cc2)cn1 [Compound 5d, N-(4-ethylphenyl)-5-(hexylamino)pyrazine-2-carboxamide]
138 to 139 °C: melting point
< 4.60: pIC50 (HepG2 cells; HepG2, 24 h)
≥ 500 µg/mL: MIC [2] | MIC [3] | MIC [4]
> 125 µM: MIC ([6]; CCM8077, 24 h) | MIC ([6]; CCM8077, 48 h) | MIC ([7]; ATCC204305, 24 h) | MIC ([7]; ATCC204305, 48 h) | MIC ([11]; 24 h) | MIC ([11]; 48 h) | MIC ([12]; 24 h) | MIC ([12]; 48 h) | MIC ([13]; CCM8363, 24 h) | MIC ([13]; CCM8363, 48 h) | MIC ([15]; 72 h) | MIC ([15]; 120 h) | MIC ([19]; 24 h) | MIC ([19]; 48 h) | MIC ([20]; 24 h) | MIC ([20]; 48 h)
> 500 µM: MIC ([5]; 24h) | MIC ([5]; 48h) | MIC ([8]; 72 h) | MIC ([8]; 120 h) | MIC ([9]; 24 h) | MIC ([9]; 48 h) | MIC ([10]; 24 h) | MIC ([10]; 48 h) | MIC ([14]; 24 h) | MIC ([14]; 48 h) | MIC ([16]; 24 h) | MIC ([16]; 48 h) | MIC KP ([17]; 24h) | MIC KP ([17]; 48h) | MIC ([18]; 24 h) | MIC ([18]; 48 h)
